In patent US8420889B2, “Epicatechin glucosyltransferase” (priority 2008, dated 2013):

Test system: recombinant UGT72L1-MBP
Assay: UGT72L1 glucosyltransferase assay with potential acceptor substrates and 14C-UDP-Glucose
Experimental: All assays were performed in triplicate for 1 hour at 30° C. along with boiled enzyme controls.
For studying pH optima, the buffers were 179 mM MES pH 5.0-7.0, and 179 mM Tris-HCl pH 7.0-9.0. Potential acceptor substrates were (−)-epicatechin, (−)-epigallocatechin, (+)-catechin, (+)-gallocatechin, procyanidins B1 and B2, cyanidin, dihydroquercetin, quercetin, kaemferol, apigenin, luteolin, liquiritigenin, daidzein and genistein (Sigma-Aldrich, St Louis, Mo.).

[1] = UDP-glucose as sugar donor, 0.1 mM acceptor substrate, 1 hour at 30° C., pH 7.5

SMILES | activity for glucosylation (in words) [1] | also measured
Oc1cc(O)c2c(c1)O[C@H](c1ccc(O)c(O)c1)[C@H](O)C2 [(−)-epicatechin] | – | Km (recombinant MBP-UGT72L1 fusion protein): 11.5 µM
Oc1cc(O)c2c(c1)O[C@H](c1cc(O)c(O)c(O)c1)[C@H](O)C2 [(−)-epigallocatechin] | – | activity for glucosylation, relative to the activity with epicatechin [1]: 27%
O=c1cc(-c2ccc(O)cc2)oc2cc(O)cc(O)c12 [apigenin] | not active | –
O=C1c2c(O)cc(O)cc2O[C@H](c2ccc(O)c(O)c2)[C@H]1O [dihydroquercetin] | not active | –
O=c1c(-c2ccc(O)cc2)coc2cc(O)cc(O)c12 [genistein] | not active | –
O=c1cc(-c2ccc(O)c(O)c2)oc2cc(O)cc(O)c12 [luteolin] | not active | –
O=c1c(O)c(-c2ccc(O)c(O)c2)oc2cc(O)cc(O)c12 [quercetin] | not active | –
